Laboratory results from patent publication US7034019B2, “Prodrugs of HIV replication inhibiting pyrimidines” (Janssen Pharmaceutica N.V., priority 2000, dated 2006).

Tests used:
HIV [1] = assay: anti-HIV activity (MT-4/MTT) of incubates after incubation in dog subcellular liver fractions; type: cell-based; settings: Human immunodeficiency virus 1, MT4, 2 h; after incubation in dog subcellular liver fraction, 120 minutes; MT-4 cells
Procedure: (§1) The metabolism of the present compounds was studied in subcellular liver fractions (1200×g) of rat, dog or human. The compounds were incubated at a final […] concentration of 30 μM; incubations were performed up to 120 minutes at a final protein concentration equivalent to 1 mg/ml microsomal proteins. Reactions were stopped by the addition of an equal volume (2 ml) of […]. Samples were stored at ≦−18° C. until analysis. […] Table 2 lists IC50 values prior to and after incubation in subcellular liver fractions.
(§2) A rapid, sensitive and automated assay procedure was used for the in vitro evaluation of anti-HIV agents. […] The viability of both HIV- and mock-infected cells was assessed spectrophotometrically via the in situ reduction of 3-(4,5-dimethylthiazol-2-yl)-2,5-diphenyltetrazolium bromide (MTT). […] The percent protection achieved by the compound in HIV-infected cells was calculated by the following formula:
(§3) [formula] whereby (ODT)HIV is the optical density measured with a given concentration of the test compound in HIV-infected cells; (ODC)HIV is the optical density measured for the control untreated HIV-infected cells; (ODC)MOCK is the optical density measured for the control untreated mock-infected cells; all optical density values were determined at 540 nm. […]

HIV [2] = assay: anti-HIV activity in MT-4 cells (MTT, HIV-induced cytopathic effect), prior to incubation; type: cell-based; settings: Human immunodeficiency virus 1, MT4; prior to incubation in subcellular liver fractions; HIV-infected MT-4 cells; read-out: IC50 before
Procedure: as §1, §2, §3

HIV [3] = assay: anti-HIV activity (MT-4/MTT) of incubates after incubation in rat subcellular liver fractions; type: cell-based; settings: Human immunodeficiency virus 1, MT4, 2 h; after incubation in rat subcellular liver fraction, 120 minutes; MT-4 cells
Procedure: as §1, §2, §3

HIV [4] = assay: anti-HIV activity (MT-4/MTT) of incubates after incubation in human subcellular liver fractions; type: cell-based; settings: after incubation in human subcellular liver fraction, MT-4 cells
Procedure: as §1, §2, §3

melting point [°C]	IC50 (HIV [1]) [nM]	IC50 (HIV [2]) [nM]	IC50 (HIV [3]) [nM]	IC50 (HIV [4]; Human immunodeficiency virus 1, MT4, 0.5 h, 30 minutes) [nM]	IC50 (HIV [4]; Human immunodeficiency virus 1, MT4, 2 h, 120 minutes) [nM]	SMILES
199 to 200	809	> 1000	–	–	–	Cc1cc(C#N)cc(C)c1Oc1nc(N(COCCO)c2ccc(C#N)cc2)ncc1Br [Compound 3]
181 to 182	138	> 1000	175	293	165	CCOCN(c1ccc(C#N)cc1)c1ncc(Br)c(Oc2c(C)cc(C#N)cc2C)n1 [Compound 1]
